We go through two compounds from ChEMBL document CHEMBL5257097, “An Isomer of Galidesivir That Potently Inhibits Influenza Viruses and Members of the Bunyavirales Order” (ACS Med Chem Lett, 2023).

SMILES strings stand for the structures.

Data set [1] in a line: Toxicity in BALB/c mouse infected with influenza A/Ca/04/09 (H1N1) assessed as animal survival at 10 to 300 mg/kg, ip measured every day for 6 days. The class given is organism-based. Conditions: in vivo, 144 h, dose 10-300 mg/kg, time 6 day.
Data set [2] can be described thus: Cytotoxicity against African green monkey Vero 76 cells infected with Zika virus assessed as reduction in cell viability by visual analysis. Particulars: chlorocebus sabaeus. Type of data set: toxicity, cell-based.
The test system of data set [3] is Oropouche virus. Put plainly: Antiviral activity against Oropouche virus infected in African green monkey Vero E6 cells assessed as inhibition of viral replication by visual analysis. The class given is functional, organism-based. Conditions: Vero C1008.
Data set [4] concerns Influenza A virus. The data set can be described thus: Antiviral activity against Influenza A virus H7N9 infected in dog MDCK cells assessed as inhibition of viral replication measured after 15 to 30 mins by neutral red dye based analysis. Type of data set: functional, organism-based.
Data set [5] deals with Oropouche virus. The data set can be described thus: Antiviral activity against Oro-pouche virus infected in African green monkey Vero E6 cells assessed as inhibition of viral replication by neutral red dye based analysis. Type of data set: functional, organism-based. Particulars: Vero C1008.
Data set [6] is described as follows: Cytotoxicity against dog MDCK cells infected with Influenza A virus H7N9 assessed as reduction in cell viability by visual analysis. The class given is toxicity, cell-based, Canis lupus familiaris.
Data set [7] is described as follows: Selectivity index, ratio of CC50 for cytotoxicity against African green monkey Vero E6 cells infected with Oropouche virus assessed as reduction in cell viability by visual analysis to EC50 for antiviral activity against Oropouche virus infected in African green monkey Vero E6 cells assessed as reduction in viral replication by visual analysis. Type of data set: toxicity, cell-based, Vero C1008. Particulars: read-out: Ratio CC50/EC50.

A short description of data set [8]: Selectivity index, ratio of CC50 for cytotoxicity against African green monkey Vero cells infected with Tacaribe virus assessed as reduction in cell viability by visual analysis to EC50 for antiviral activity against Tacaribe virus infected in African green monkey Vero cells assessed as reduction in viral replication by visual analysis. Type of data set: toxicity, cell-based. Particulars: read-out: Ratio CC50/EC50.

Data set [9] deals with Severe fever with thrombocytopenia syndrome virus. The data set can be described thus: Antiviral activity against Severe fever with thrombocytopenia syndrome virus infected in African green monkey Vero E6 cells assessed as reduction in viral yield measured for 3 days. Type of data set: functional. Conditions: Vero C1008, 72 h, time 3 day.
Data set [10] concerns Pichinde virus. The data set can be described thus: Antiviral activity against Pichinde virus infected in African green monkey Vero cells assessed as inhibition of viral replication by neutral red dye based analysis. Type of data set: functional, organism-based.
Data set [11] can be described thus: Selectivity index, ratio of CC50 for cytotoxicity against dog MDCK cells infected with Influenza A virus H1N1 assessed as reduction in cell viability by visual analysis to EC50 for antiviral activity against Influenza A virus H1N1 infected in dog MDCK cells assessed as inhibition of viral replication by visual analysis. The class given is toxicity, cell-based. Particulars: read-out: Ratio CC50/EC50.

Data set [12] relates to La Crosse virus. Put plainly: Antiviral activity against La Crosse virus infected in African green monkey Vero E6 cells assessed as inhibition of viral replication by visual analysis. Particulars: Vero C1008. The class given is functional, organism-based.
In data set [13] the test system is Mammarenavirus choriomeningitidis. Put plainly: Antiviral activity against Lymphocytic choriomeningitis virus infected in African green monkey Vero E6 cells assessed as reduction in viral yield measured for 3 days. Conditions: Vero C1008, 72 h, time 3 day. Type of data set: functional.
Data set [14] is described as follows: Selectivity index, ratio of CC50 for cytotoxicity against African green monkey Vero cells infected with Tacaribe virus assessed as reduction in cell viability by neutral red dye based analysis to EC50 for antiviral activity against Tacaribe virus infected in African green monkey Vero cells assessed as reduction in viral replication by neutral red dye based analysis. Type of data set: toxicity. Particulars: read-out: Ratio CC50/EC50.

A short description of data set [15]: Cytotoxicity against dog MDCK cells infected with Influenza B virus assessed as reduction in cell viability by neutral red dye based analysis. The class given is toxicity, Canis lupus familiaris.
Data set [16] in a line: Cytotoxicity against African green monkey Vero E6 cells infected with Severe fever with thrombocytopenia syndrome virus assessed as reduction in cell viability. The class given is toxicity, cell-based, Vero C1008. Particulars: chlorocebus sabaeus.
In data set [17] the test system is Influenza A virus. Put plainly: Antiviral activity against Influenza A virus H1N1 infected in dog MDCK cells assessed as inhibition of viral replication measured after 15 to 30 mins by neutral red dye based analysis. Type of data set: functional, organism-based.
The nature of data set [18]: Cytotoxicity against African green monkey Vero 76 cells infected with La Crosse virus assessed as reduction in cell viability by neutral red dye based analysis. Type of data set: toxicity. Conditions: chlorocebus sabaeus.
Data set [19] is described as follows: Selectivity index, ratio of CC50 for cytotoxicity against African green monkey Vero E6 cells infected with Lymphocytic choriomeningitis virus assessed as reduction in cell viability to EC90 for antiviral activity against Lymphocytic choriomeningitis virus infected in African green monkey Vero E6 cells assessed as reduction in viral yield. The class given is toxicity, cell-based, Vero C1008.

In data set [20] the test system is Punta Toro virus. The data set can be described thus: Antiviral activity against Punta Toro virus infected in African green monkey Vero 76 cells assessed as inhibition of viral replication by neutral red dye based analysis. Type of data set: functional, organism-based.
The test system of data set [21] is Tacaribe virus. The data set can be described thus: Antiviral activity against Tacaribe virus infected in African green monkey Vero cells assessed as inhibition of viral replication by visual analysis. Type of data set: functional, organism-based. Particulars: Mammarenavirus tacaribeense.
For data set [22], the system named is Influenza A virus. Put plainly: Antiviral activity against Influenza A virus H1N1 infected in dog MDCK cells assessed as reduction in virus yield measured after 3 days by visual analysis. Conditions: 72 h, time 3 day. Type of data set: functional.
A short description of data set [23]: Cytotoxicity against African green monkey Vero E6 cells infected with JUNV assessed as reduction in cell viability by neutral red dye based analysis. Conditions: chlorocebus sabaeus. Type of data set: toxicity, Vero C1008.
Data set [24] is described as follows: Cytotoxicity against dog MDCK cells infected with Influenza A virus H1N1 assessed as reduction in cell viability by neutral red dye based analysis. Type of data set: toxicity, Canis lupus familiaris.
Data set [25] in a line: Selectivity index, ratio of CC50 for cytotoxicity against African green monkey Vero cells infected with JUNV assessed as reduction in cell viability by visual analysis to EC50 for antiviral activity against JUNV infected in African green monkey Vero cells assessed as reduction in viral replication by visual analysis. Conditions: read-out: Ratio CC50/EC50. Type of data set: toxicity, cell-based.

Data set [26] in a line: Cytotoxicity against African green monkey Vero E6 cells infected with Maporal virus assessed as reduction in cell viability. Conditions: chlorocebus sabaeus. Type of data set: toxicity, cell-based, Vero C1008.
For data set [27], the system named is Pichinde virus. Put plainly: Antiviral activity against Pichinde virus infected in African green monkey Vero cells assessed as inhibition of viral replication by visual analysis. The class given is functional, organism-based.
Data set [28] deals with La Crosse virus. Put plainly: Antiviral activity against La Crosse virus infected in African green monkey Vero E6 cells assessed as inhibition of viral replication by neutral red dye based analysis. The class given is functional, organism-based. Particulars: Vero C1008.
Data set [29] is described as follows: Selectivity index, ratio of CC50 for cytotoxicity against dog MDCK cells infected with Influenza A virus H7N9 assessed as reduction in cell viability by neutral red dye based analysis to EC50 for antiviral activity against Influenza A virus H7N9 infected in dog MDCK cells assessed as inhibition of viral replication by neutral red dye based analysis. Type of data set: toxicity. Particulars: read-out: Ratio CC50/EC50.

Data set [30] in a line: Selectivity index, ratio of CC50 for cytotoxicity against African green monkey Vero E6 cells infected with Severe fever with thrombocytopenia syndrome virus assessed as reduction in cell viability to EC90 for antiviral activity against Severe fever with thrombocytopenia syndrome virus infected in African green monkey Vero E6 cells assessed as reduction in viral replication. The class given is toxicity, cell-based, Vero C1008.

Data set [31] in a line: Cytotoxicity against dog MDCK cells infected with Influenza A virus H3N2 assessed as reduction in cell viability by visual analysis. Type of data set: toxicity, cell-based, Canis lupus familiaris.
The test system of data set [32] is Influenza A virus. The data set can be described thus: Antiviral activity against Influenza A virus infected in dog MDCK cells assessed as reduction in viral cytopathic effect. The class given is functional, organism-based. Background: Protection from cytopathic effect is a common read-out in antiviral testing.
Data set [33] concerns Measles morbillivirus. Put plainly: Antiviral activity against Measles virus infected in African green monkey Vero cells assessed as reduction in viral cytopathic effect. Type of data set: functional, organism-based.
The subject of data set [34] is Ebolavirus. The data set can be described thus: Antiviral activity against Ebola virus infected in human HeLa cells assessed as reduction in viral cytopathic effect. The class given is functional, organism-based. Conditions: Orthoebolavirus.
The test system of data set [35] is Influenza B virus. The data set can be described thus: Antiviral activity against Influenza B virus infected in dog MDCK cells assessed as reduction in viral cytopathic effect. Type of data set: functional, organism-based.
Data set [36] relates to dengue virus type 2. Put plainly: Antiviral activity against DENV-2 infected in African green monkey Vero cells assessed as reduction in virus-induced cytopathic effect measured after 15 to 30 mins by neutral red based analysis. The class given is functional, organism-based.

The term CC50 denotes the concentration giving 50% cytotoxicity. By EC50 is commonly meant the concentration at which the effect is half-maximal. The EC90 is the concentration at which the effect reaches the 90% level. In the case of `Nc1ncnn2c([C@@H]3N[C@H](CO)[C@@H](O)[C@H]3O)ccc12`, the Activity result in data set [1] is on record as “Non-Toxic”. Further, the CC50 in data set [2] was 6100 nM; in [6], 32000 nM; in [15], 9800 nM; in data set [16], 11000 nM; in data set [18], 24000 nM; in data set [23], 9600 nM. Also, the figures for the CC50 in data set [24], in data set [26] and in data set [31] were 14000 nM, 13000 nM and 12000 nM, respectively. For the same compound, the half-maximal effective concentration (EC50) is 390 nM in [3]; 390 nM in data set [4]; 200 nM in data set [5]; 300 nM in [10]; < 100 nM in data set [12]; 320 nM in data set [17]. Further, the EC50 in [20] was 270 nM; in data set [21] it was 370 nM; in data set [27], 380 nM; in data set [28], < 100 nM. The selectivity ratio is 62 in data set [7]; 32 in [8]; 41 in data set [11]; 20 in data set [14]; 80 in [19]; 22 in data set [25]. In addition, the figures for the selectivity ratio in [29] and in data set [30] were 77 and 49, respectively. Also, the EC90 came to 220 nM in [9], 150 nM in data set [13] and 100 nM in [22].

On to `Nc1ncnc2c([C@@H]3N[C@H](CO)[C@@H](O)[C@H]3O)c[nH]c12` [GALIDESIVIR], for which the CC50 in data set [2] was > 100000 nM. Besides, the EC50 in [32] was found to be 1000 nM; in [33], 1800 nM; in data set [34], 3000 nM; in data set [35] it was 1000 nM; in [36], 15000 nM.
